From article PMC6057649, “Development of NanoLuc-PEST expressing Leishmania mexicana as a new drug discovery tool for axenic- and intramacrophage-based assays” (PLoS Neglected Tropical Diseases, 2018)
Read-outs that look alike come from different tables or passages of the source.

Test system: NanoLuc-PEST expressing L. mexicana axenic amastigotes
Test: microbe, parasite or virus in culture
Assay type: cell-based
Conditions: for Relative Bioluminescence (%) / viability at 2 µM / viability at 10 µM: 72 hours, relative to DMSO only control, n = 4; for EC50: hit compounds from the axenic amastigote screen, S3 Table, read-out: EC50, Axenic Amastigotes; for viability at 2 µM / viability at 10 µM: read-out: Relative Bioluminescence (%)
[1] = Leishmania mexicana, 2 µM compound
[2] = Leishmania mexicana, 10 µM compound

| SMILES | Relative Bioluminescence (%) (2 µM compound) | Relative Bioluminescence (%) (10 µM compound) | also measured |
| --- | --- | --- | --- |
| Nc1ncnc2c1c(-c1cnc3ccccc3c1)nn2CC1CCNCC1 [MMV688411] | 105.51% | 65.85% |  |
| Cc1cc(Cl)ccc1NC(=O)CCc1ccc(S(=O)(=O)NCC(C)C)cc1 [MMV161996] | 75.91% | 98.90% |  |
| Cc1nn(C)c(C)c1NS(=O)(=O)c1c(Cl)cc(-c2ccnc(N3CCNCC3)c2)cc1Cl [MMV688180] | 98.32% | 81.67% |  |
| COc1ccc(C2(C(=O)Nc3ccc(Br)cc3)CCCC2)cc1 [MMV200748] | 64.99% | 61.91% |  |
| Cc1ccc(S(=O)(=O)Nc2ccc(CN3CCN(C(=O)c4cccc(C#N)c4)CC3)cc2)cc1 [MMV689028] | 54.14% | 72.62% |  |
| CCc1ccc(S(=O)(=O)Nc2cc(CN3CCN(CCC(C)C)CC3)ccc2C)cc1 [MMV688124] | 85.13% | 56.21% |  |
| COc1ccc(-c2cnc3ccc(NCc4ccc(S(N)(=O)=O)cc4)nn23)cn1 [MMV010545] | 70.73% | 68.48% |  |
| C[C@H](c1ccc2c(c1)CCCC2)N(C)c1ncc2c(N)nc(N)nc2n1 [MMV690103] | 59.86% | 0.48% |  |
| Cc1cc(OCC(=O)NCc2ccccc2)c2cc(Br)ccc2n1 [MMV687747] | 76.47% | 30.38% |  |
| CC(C(=O)Nc1ccc2oc(-c3ccncc3)nc2c1)c1ccccc1 (stereo not shown) [MMV688471] | 59.14% | 49.33% |  |
| Cc1[nH]c2cc(F)cc(F)c2c(=O)c1-c1ccc(Oc2ccc(OC(F)(F)F)cc2)cc1 [MMV671636] | 40.19% | 3.97% |  |
| N#Cc1ccc(-c2ccc(OCC(N)=O)cc2)cc1 [MMV053220] | 105.30% | 82.56% |  |
| O=C(NCc1ccco1)N1CCN(Cc2ccc(Cl)s2)CC1 [MMV688555] | 63.56% | 83.23% |  |
| CC(c1cc(Cl)cc(Cl)c1)N(C)c1ncc2c(N)nc(N)nc2n1 (stereo not shown) [MMV689437] | 37.21% | 1.17% |  |
| COc1cc(CN2CCC3(C=Cc4ccccc43)CC2)cc2c1OCO2 [MMV688941] | 78.23% | 74.74% |  |
| NS(=O)(=O)c1cccc(-c2ccc3ncc(N4CCOCC4)nc3c2)c1 [MMV023860] | 79.77% | 74.37% |  |
| CCOC(=O)c1c(NC(=O)c2c(F)c(F)c(F)c(F)c2F)sc(C(N)=O)c1C [MMV153413] | 4.50% | 0.97% | EC50: 520 nM |
| COc1ccc(-c2onc(C(F)(F)F)c2-c2ccc(Cl)cc2)c(O)c1 [MMV688766] | 82.40% | -2.36% |  |
| c1ccc(Oc2ccc(-c3cc(CN4CCOCC4)[nH]n3)cc2)cc1 [MMV676161] | 108.65% | 116.07% |  |
| CS(=O)(=O)c1ccccc1C(=O)N(Cc1ccccc1)c1ccccc1 [MMV688798] | 64.37% | 62.11% |  |

| SMILES | Relative Bioluminescence (%) (2 µM compound) | Relative Bioluminescence (%) (10 µM compound) | also measured |
| --- | --- | --- | --- |
| COc1ccc(-c2nn(C(C)C)c3ncnc(N)c23)cc1OC [MMV675993] | 66.21% | 27.37% |  |
| N=C(N)c1ccc(OCCCCCOc2ccc(C(=N)N)cc2)cc1 [MMV000062, Pentamidine, reference compound] |  |  | viability at 2 µM [1]: 72.2%; viability at 10 µM [2]: 96.8% |
| Cc1noc(C)c1C(=O)N1CCCC(c2[nH]c3c(C)cccc3c2-c2ccncc2)C1 (stereo not shown) [MMV020623] | 68.14% | 86.96% |  |
| CC1(C)OB(O)c2ccc(C3=NOC(c4cc(Cl)c(F)c(Cl)c4)(C(F)(F)F)C3)cc21 (stereo not shown) [MMV687775] | 54.77% | 7.40% |  |
| Oc1c(I)cc(I)c2cccnc12 [MMV002817, Iodoquinol, reference compound] |  |  | viability at 2 µM [1]: -1.49%; viability at 10 µM [2]: -1.46%; EC50 (Leishmania mexicana): 220 nM |
| CC(=O)Nc1ccc(NC(=O)c2cc(-c3cc(Cl)ccc3O)n[nH]2)cc1 [MMV676380] | 84.54% | 97.79% |  |
| N=C(N)Nc1ccc(-c2ccc(-c3ccc(N=C(N)N)c(Cl)c3)o2)cc1Cl [MMV688271] | 98.92% | 56.10% |  |
| COC(=O)c1ccc(F)cc1NS(=O)(=O)c1cccc(-c2cnn(Cc3ccccc3)c2)c1 [MMV688350] | 101.75% | 91.24% |  |
| COc1ccc(CCN2CCC(NCc3cccc(N(C)C)c3)CC2)cc1 [MMV011511] | 78.49% | 88.55% |  |
| OCCc1ccc(Nc2nccc(-c3nnc4ccccn34)n2)cc1 [MMV028694] | 24.99% | 3.77% |  |
| O=C(Cn1ccnc1[N+](=O)[O-])NCc1ccccc1 [MMV688773, Benznidazole, reference compound] |  |  | viability at 2 µM [1]: 110%; viability at 10 µM [2]: 132% |
| CCCn1c(NC(=O)c2ccc3ccccc3n2)nc2ccccc21 [MMV1030799] | 37.62% | -5.56% |  |
| COc1cc(OC)cc(C(=O)NCC2Cc3cc(Cl)cc(-c4ccncc4)c3O2)c1 (stereo not shown) [MMV007471] | 87.80% | 69.68% |  |
| CC(=O)NC[C@H]1CN(c2ccc(N3CCSCC3)c(F)c2)C(=O)O1 [MMV688756, Sutezolid, reference compound] |  |  | viability at 2 µM [1]: 88.9%; viability at 10 µM [2]: 64.5% |
| CCOc1ccc(-c2nc(NC(=O)CS(=O)(=O)c3ccccc3)sc2C)cc1 [MMV007638] | 57.66% | 52.58% |  |
| O=C(CCC1CCCCC1)Nc1cccc(-c2nnc(-c3ccco3)o2)c1 [MMV676589] | 54.08% | 15.64% |  |
| CCc1nc2ccccc2n1CC(O)COc1cc(C)ccc1Cl (stereo not shown) [MMV676449] | 92.26% | 88.05% |  |
| COc1ccc(-c2nc(-c3cccc(NC(=O)Cc4ccc(F)cc4)c3)no2)cc1OC [MMV676571] | 102.29% | 85.94% |  |
| Cc1c[nH]c(CCNC(=O)c2cc(-c3ccc(Cl)cc3)cs2)n1 [MMV676350] | 84.72% | 104.94% |  |
| CO[C@@H]1CN(c2ccc(C#CC3(O)CN4CCC3CC4)c(Cc3ccccc3)n2)C[C@H]1O (stereo partly shown) [MMV688415] | 63.04% | 31.88% |  |

| SMILES | Relative Bioluminescence (%) (2 µM compound) | Relative Bioluminescence (%) (10 µM compound) | also measured |
| --- | --- | --- | --- |
| CCc1nc2ccc(Cl)cn2c1C(=O)NCc1ccc(N2CCC(c3ccc(OC(F)(F)F)cc3)CC2)cc1 [MMV687696] | 113.56% | 57.87% |  |
| CN1CCC(c2cc(-c3ccncc3)c(-c3ccc(F)cc3)[nH]2)CC1 [MMV688703] | 74.84% | 81.84% |  |
| COc1ccc2nc(C)cc(OCC(=O)NCc3ccccc3)c2c1 [MMV687189] | 92.36% | 81.16% |  |
| CCc1nc2ccc(C(=O)NCc3ccc4c(c3)OCO4)cn2c1N(C)Cc1cccs1 [MMV407539] | 104.77% | 70.84% |  |
| O=C(NCc1cc(Cl)cc(Cl)c1)c1c(C(F)(F)F)nc2ccccn12 [MMV687699] | 81.42% | 62.05% |  |
| CNCCC(Oc1ccc(C(F)(F)F)cc1)c1ccccc1 (stereo not shown) [MMV001561, Fluoxetine, reference compound] |  |  | viability at 2 µM [1]: 90.4%; viability at 10 µM [2]: 52.4% |
| CC(C)n1nc(-c2cc3c(Cl)cccc3[nH]2)c2c(N)ncnc21 [MMV688417] | 76.07% | -0.98% |  |
| CC(C)(C)OC(=O)N1CCC(Cn2nc(-c3cnc4ccccc4c3)c3c(N)ncnc32)CC1 [MMV688364] | 80.73% | 58.45% |  |
| COc1ccc(-c2nnc3ccc(-c4cccc(C(C)C)c4)cn23)cc1OC [MMV688313] | 55.91% | 18.47% |  |
| C[C@H](C(N)=O)N1CCCC[C@@H]1c1ccc(OCc2cccc(F)c2)cc1 [MMV676270] | 41.26% | 18.00% |  |
| CCN(CC)C(=O)N1CCN(C)CC1 [MMV002816, Diethylcarbamazine, reference compound] |  |  | viability at 2 µM [1]: 88.8%; viability at 10 µM [2]: 62.5% |
| Cc1ccccc1C(=O)N1NC(=Nc2ccccc2)SC1(C)C [MMV688771] | 70.08% | 37.89% |  |
| FC(F)(F)c1nnc2ccc(Cl)nn12 [MMV069458] | 115.05% | 112.41% |  |
| O=C(OCc1ccccc1)N1CCC(c2cc(-c3ccncc3)c(-c3ccc(F)cc3)[nH]2)CC1 [MMV688509] | 70.28% | 27.84% |  |
| COc1cc(-c2cc(-c3ccc(S(C)(=O)=O)cc3)cnc2N)ccc1O [MMV010576] | 44.69% | 21.84% |  |
| NC(=O)c1cc(-c2ccsc2)ccc1OCCOc1ccccc1 [MMV687138] | 56.61% | 48.25% |  |
| Nc1nccc2ccc(Oc3ccncc3)cc12 [MMV026313] | 56.90% | 66.48% |  |
| O=C(c1cc2ccccc2o1)N1CCN(Cc2ccc3c(c2)OCO3)CC1 [MMV676520] | 56.86% | 68.82% |  |
